The values that follow come from patent US7994204B2, “Binding inhibitor of sphingosine-1-phosphate” (Taisho Pharmaceutical Co., Ltd, priority 2006, dated 2011).

In data set [1] the target is T1, human Edg-1 (S1P1) (Homo sapiens, UniProt P21453).
T1 construct: expressed in transfected cells; host or cells: HEK-293
The data set is described as follows: S1P1 binding inhibition test (membrane, [33P]-S1P). The note with it: for inhibition at 10 µM: compound 10 μM, [33P]-S1P 0.1 nM, human Edg-1 (S1P1) HEK-293 membrane fraction, read-out: Binding test (membrane) % inhibition (10 μM); for IC50: membrane system binding test, various concentrations. As to the method:
The membrane fraction was obtained by treating the cells with a solubilizing buffer (1 mM Tris/HCl, pH 7.2) for 10 minutes on ice, centrifuging at 1000×g for 5 minutes to remove insoluble fractions, and then centrifuging at 40000×g for 30 minutes at 4° C. The resulting membrane fraction was dissolved in a binding buffer (20 mM Tris-HCl, pH 7.4, 100 mM NaCl, 15 mM NaF, 2 mM deoxypyridoxine, 4 mg/mL fatty acid-free BSA), and then [^33P]-S1P (manufactured by ARC, final concentration 0.1 nM) and a DMSO solution (final concentration of the compound 10^−5 M, final concentration of DMSO 0.1%) of the test compound were added. Thereafter, the mixture was stirred and then treated for one hour at 30° C. Using a harvester, the membrane fraction was harvested onto unifilter-96 GF/C filter (manufactured by Perkin Elmer), washing was carried out four times with the binding buffer, and the filter was dried. Twenty five μL Microscint 0 (manufactured by Perkin Elmer) was added, and radioactivity was measured using Top Count NXT (manufactured by Packard) to calculate the amount (A) of [^33P]-S1P bound to the membrane fraction at the time when the compound was added.
The same procedure was carried out in the absence of the test compound, and the amount (B) of [^33P]-S1P bound was calculated. Further, the same procedure was carried out in the absence of the test compound by use of HEK-293 cells to which no Edg-1 (S1P1) gene was introduced, and the background amount (C) of [^33P]-S1P bound was calculated.
Inhibition rate (%)=[1−(A−C)/(B−C)]×100.
Moreover, the concentration required for a test compound to produce 50% inhibition of the binding caused in the absence of the test compound was also calculated (IC50). The above membrane system binding test was performed in the presence of a test compound at various concentrations to calculate the inhibition rate of Edg-1(S1P1) binding at each concentration according to the above equation, followed by calculating an IC50 value for each compound with data analysis software, Origin (Lightstone Corp., Japan).

T1 sequence (P21453 whole entry): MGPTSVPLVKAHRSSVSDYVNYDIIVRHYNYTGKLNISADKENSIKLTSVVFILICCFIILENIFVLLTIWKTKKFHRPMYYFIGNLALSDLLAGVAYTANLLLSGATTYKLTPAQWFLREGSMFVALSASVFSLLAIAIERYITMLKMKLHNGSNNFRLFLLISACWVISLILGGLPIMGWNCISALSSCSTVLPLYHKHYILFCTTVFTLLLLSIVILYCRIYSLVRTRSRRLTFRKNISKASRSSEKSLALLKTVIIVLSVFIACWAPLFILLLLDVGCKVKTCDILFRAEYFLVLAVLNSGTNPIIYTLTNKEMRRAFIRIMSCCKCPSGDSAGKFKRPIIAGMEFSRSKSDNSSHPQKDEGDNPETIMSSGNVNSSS

For orientation: melting point means the temperature of the solid-liquid transition. What is called inhibition is the drop in the measured response relative to a control, in per cent. Molecule `CCn1c(C(C)NS(=O)(=O)c2ccc3cc(C)ccc3c2)cnc1Oc1cccc(N2CCN(C)CC2)c1` (stereo not shown) [Compound 242] displayed a melting point of 175 to 177 °C. For the same molecule, the inhibition at 10 µM in data set [1] turned out to be 94.5%. For `CC(NS(=O)(=O)c1ccc(Cl)c(Cl)c1)c1cnc(Oc2ccc(F)cc2)n1C` (stereo not shown) [Compound 211] the same measures were 179.5 to 180.5 °C and 92.2%. Take `CCc1c(C(C)NS(=O)(=O)c2ccc3c(Cl)cccc3c2)nn(C)c1Oc1ccc(C)cc1` (stereo not shown) [Compound 181]: the melting point is 154.5 to 155.5 °C. A word on the IC50: it is the concentration that inhibits the measured activity by half. A low value points to higher potency. `CCn1c(C(Cc2ccc(F)cc2)NS(=O)(=O)c2ccc3c(Cl)cccc3c2)cnc1Oc1ccc(F)cc1` (stereo not shown) [Compound 200] yielded a melting point of 175 to 176 °C. In data set [1], the inhibition at 10 µM came out at 97.1% and the IC50 stood at 17 nM. The matching figures for `CCC(NS(=O)(=O)c1ccc2c(Cl)cccc2c1)c1cnc(Oc2ccc(F)cc2)n1CC` (stereo not shown) [Compound 192]: 118 to 120 °C, 101% and 23 nM. The matching figures for `CCn1c(C(C)NS(=O)(=O)c2ccc3cccc(Cl)c3c2)cnc1Oc1cccc(N2CCN(C)CC2)c1` (stereo not shown) [Compound 247]: 196 to 198 °C, 99.9% and ≤ 15 nM. For `CCn1c(C(C)NS(=O)(=O)c2ccc(Cl)c(Cl)c2)cnc1OCc1ccccc1` (stereo not shown) [Compound 230], the melting point lay within 102 to 103 °C. For the same molecule, in data set [1], the inhibition at 10 µM amounted to 90.7%. The matching figures for `CCn1c(C(C)NS(=O)(=O)c2ccc3ccc(Cl)cc3c2)cnc1Oc1cccc(N2CCN(C)CC2)c1` (stereo not shown) [Compound 243]: 135 to 136 °C and 97.4%. The matching figures for `CCn1c(C(C)NS(=O)(=O)c2ccc(Cl)c(Cl)c2)cnc1OC1CCCCC1` (stereo not shown) [Compound 216]: 180 to 181 °C and 92%. `CCn1c(C(C)NS(=O)(=O)c2ccc(Cl)c(Cl)c2)cnc1Oc1ccc(OC)cc1` (stereo not shown) [Compound 203]: the melting point lay within 146.5 to 148 °C. Further, in data set [1], the inhibition at 10 µM amounted to 102% and the IC50 was found to be 23.5 nM. For `CCn1c(C(C)NS(=O)(=O)c2ccc(Cl)c(Cl)c2)cnc1Oc1ccc(OCCN2CCOCC2)cc1` (stereo not shown) [Compound 214] the same measures were 167 to 168 °C, 102% and ≤ 70 nM. Turning to `CCn1c(C(C)NS(=O)(=O)c2ccc(Cl)c(Cl)c2)cnc1OC(C)C` (stereo not shown) [Compound 222], the melting point fell in the range of 178 to 180 °C. Further, the inhibition at 10 µM in data set [1] is 87.6%.

For the molecule `CCCCCCCCCCCCCCCCCCOc1ncc(C(C)NS(=O)(=O)c2ccc(Cl)c(Cl)c2)n1CC` (stereo not shown) [Compound 238], the melting point fell in the range of 117 to 118 °C. Molecule `CCn1c(C(C)NS(=O)(=O)c2ccc(Cl)c(Cl)c2)cnc1Oc1cc(C(F)(F)F)n(C)n1` (stereo not shown) [Compound 217] came in with a melting point of 146 to 148 °C. In addition, the inhibition at 10 µM in data set [1] turned out to be 96.3%.

Consider `CC(NS(=O)(=O)c1ccc2c(Cl)cccc2c1)c1cnc(Oc2ccc(F)cc2)n1C` (stereo not shown) [Compound 212], for which the melting point fell in the range of 134 to 135 °C. Besides, the inhibition at 10 µM in data set [1] was 92%. Molecule `CCn1c(C(C)NS(=O)(=O)c2ccc(Cl)c(Cl)c2)cnc1Oc1ccc2ccncc2c1` (stereo not shown) [Compound 213] showed a melting point of 185.5 to 187.5 °C. In data set [1], the inhibition at 10 µM was determined as 99.6% and the IC50 was 49 nM. The matching figures for `CCn1c(C(C)NS(=O)(=O)c2ccc(Cl)c(Cl)c2)cnc1Oc1ccc(F)cc1` (stereo not shown) [Compound 186]: 156 to 157 °C, 99.8% and ≤ 70 nM. In turn, `CCn1c(C(C)NS(=O)(=O)c2ccc(Cl)c(Cl)c2)cnc1OCCCOC` (stereo not shown) [Compound 239] gave a melting point of 151.5 to 152.5 °C. In addition, in data set [1], the inhibition at 10 µM was 95.9%.

As to `CCn1c(C(C)NS(=O)(=O)c2ccc3c(Cl)cccc3c2)nc(Cl)c1Oc1ccc(C)cc1` (stereo not shown) [Compound 182], the melting point fell in the range of 137.5 to 138.5 °C. The same measure, in the same setting: with `CCn1c(Oc2ccc(F)cc2)nc(-c2ccccc2)c1C(C)NS(=O)(=O)c1ccc(Cl)c(Cl)c1` (stereo not shown) [Compound 227] the figure was 216.5 to 217.5 °C. With `CCn1c(C(C)NS(=O)(=O)c2ccc(OC(F)(F)F)cc2)cnc1Oc1ccc(C)cc1` (stereo not shown) [Compound 39], in data set [1], the inhibition at 10 µM worked out at 64.8%.

As for `C=Cc1ccc(S(=O)(=O)NC(C)c2cnc(Oc3ccc(C)cc3)n2CC)cc1` (stereo not shown) [Compound 40], the inhibition at 10 µM in data set [1] turned out to be 81.2%. `CCn1c(C(C)NS(=O)(=O)c2ccc(Cl)c(Cl)c2)cnc1OC` (stereo not shown) [Compound 240] yielded a melting point of 199 to 200 °C.

With `CCn1c(C(C)NS(=O)(=O)c2ccc(Cl)c(Cl)c2)cnc1OCCCN1CCN(C)CC1` (stereo not shown) [Compound 251], the inhibition at 10 µM in data set [1] was 96.3%. Turning to `CCn1c(C(C)NS(=O)(=O)c2cc(C)ccc2OC)cnc1Oc1ccc(C)cc1` (stereo not shown) [Compound 73], in data set [1], the inhibition at 10 µM came out at 74.3%.

Regarding `CCn1c(C(C)NS(=O)(=O)c2ccc(Br)cc2Br)cnc1Oc1ccc(C)cc1` (stereo not shown) [Compound 113], in data set [1], the inhibition at 10 µM turned out to be 77.8%. Still for that read-out and setting: with `CCn1c(C(C)NS(=O)(=O)c2ccc(C(F)(F)F)cc2)cnc1Oc1ccc(C)cc1` (stereo not shown) [Compound 44] the figure was 93.5%; with `CCn1c(C(C)NS(=O)(=O)c2ccccc2Br)cnc1Oc1ccc(C)cc1` (stereo not shown) [Compound 7], 63.3%. The same measure, in the same setting: with `CCn1c(C(C)NS(=O)(=O)c2ccc(C(=O)OC)n2C)cnc1Oc1ccc(C)cc1` (stereo not shown) [Compound 51] the figure was 93.7%; with `CCn1c(C(C)NS(=O)(=O)c2ccc(C#N)cc2)cnc1Oc1ccc(C)cc1` (stereo not shown) [Compound 76], 89.3%; with `CCC(NS(=O)(=O)c1ccc(Cl)c(Cl)c1)c1cnc(Oc2ccc(F)cc2)n1CC` (stereo not shown) [Compound 191, 3,4-Dichloro-N-{1-[3-ethyl-2-(4-fluorophenoxy)-3H-imidazol-4-yl]-propyl}-benzenesulfonamide], 100%. The same measure, in the same setting: with `CCn1c(C(C)NS(=O)(=O)c2ccc(OC(F)F)cc2)cnc1Oc1ccc(C)cc1` (stereo not shown) [Compound 116] the figure was 78.2%; with `CCn1c(C(C)NS(=O)(=O)c2ccc(C(F)(F)F)cc2Br)cnc1Oc1ccc(C)cc1` (stereo not shown) [Compound 124], 65.6%; with `CCn1c(C(C)NS(=O)(=O)c2cccc(C(F)(F)F)c2)cnc1Oc1ccc(C)cc1` (stereo not shown) [Compound 37], 98.5%. On to `CCn1c(C(C)NS(=O)(=O)c2c(C)cc(OC)c(C)c2C)cnc1Oc1ccc(C)cc1` (stereo not shown) [Compound 68], for which the inhibition at 10 µM in data set [1] is 64.7%.

In the case of `CCn1c(C(C)NS(=O)(=O)c2cccc3cnccc23)cnc1Oc1ccc(C)cc1` (stereo not shown) [Compound 169], the inhibition at 10 µM in data set [1] was 62%. Same read-out and setting: with `CCn1c(C(C)NS(=O)(=O)c2ccc(OC)cc2)cnc1Oc1ccc(C)cc1` (stereo not shown) [Compound 23] the figure was 98.6%. For `CCn1c(C(C)NS(=O)(=O)c2ccc(Br)cc2C)cnc1Oc1ccc(C)cc1` (stereo not shown) [Compound 88], in data set [1], the inhibition at 10 µM came out at 74.2%.

Molecule `CCn1c(C(NS(=O)(=O)c2ccc(Cl)c(Cl)c2)c2ccccc2)cnc1Oc1ccc(F)cc1` (stereo not shown) [Compound 201] gave a melting point of 157.5 to 158 °C.

As for `CCn1c(C(C)NS(=O)(=O)c2cc(Cl)ccc2OC)cnc1Oc1ccc(C)cc1` (stereo not shown) [Compound 107], the inhibition at 10 µM in data set [1] was found to be 79.8%.

On to `CCn1c(C(C)NS(=O)(=O)c2ccc(F)c3ccccc23)cnc1Oc1ccc(C)cc1` (stereo not shown) [Compound 162], for which, in data set [1], the inhibition at 10 µM was 70.2%.
